Data published in PMC11784839, “Monoaminergic neurotransmitters are bimodal effectors of tau aggregation” (Science Advances, 2025).

Target: tau (Homo sapiens, UniProt P10636)
Test: MCE Phenols Library screening, tau biosensor cell seeding assay (AvZ)
Type: cell-based
Conditions: for AvZ (average z score of seeding, SDs from the mean level of seeding): 10 μM phenol in cell cultures, AD brain homogenate preincubated 16 hours, two biological replicates, positive = catalyzes seeding, negative = inhibits; for Z repl 1 / Z Repl 2: Z score; for Z repl 1 / raw data 1: replicate 1; for Z Repl 2 / raw data 2: replicate 2; for av Z: average Z score of the two replicates
[1] = average puncta of the two replicates
[2] = tau biosensor seeding, MCE Phenols Library screen

Sequence of tau (P10636 623-695 limits assumed): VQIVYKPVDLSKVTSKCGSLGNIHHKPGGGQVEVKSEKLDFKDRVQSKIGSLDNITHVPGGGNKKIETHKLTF

SMILES | AvZ (average z score of seeding, SDs from the mean level of seeding) | Z repl 1 | Z Repl 2 | av puncta [1] | raw data 1 (puncta) | raw data 2 (puncta) | raw data 1 (raw puncta) | raw data 2 (raw puncta) | av puncta (average of raw data 1 and 2) | av Z (MCE Phenols Library screen) | av Z [2] | av Z (tau seeding)
COC(=O)/C=C/c1ccc(O)c(O)c1 [Methyl caffeate] | -0.349 | -0.415 | -0.284 | 15550.1 | – | – | 21362.3 | 9737.92 | – | – | – | –
COC(=O)c1cc(O)c(O)c(O)c1 [Methyl gallate] | -1.311 | -1.727 | -0.895 | – | 5612.12 | 3211.88 | – | – | 4412 | – | – | –
COC(=O)[C@@H](Cc1ccc(O)c(O)c1)OC(=O)/C=C/c1ccc(O)c(O)c1 [Methyl rosmarinate] | – | -0.241 | -0.521 | 15329.6 | – | – | 23459.6 | 7199.56 | – | -0.381 | – | –
COc1ccc2c(c1OC)O[C@H]1c3ccc(O)cc3OC[C@@H]21 [Methylnissolin] | – | -0.257 | -1.004 | 12658.4 | 23269.5 | 2047.37 | – | – | – | -0.63 | – | –
O=C(O)[C@H]1O[C@@H](Oc2c(-c3ccc(O)c(O)c3)oc3cc(O)cc(O)c3c2=O)[C@H](O)[C@@H](O)[C@@H]1O [Miquelianin] | – | 1.087 | 0.729 | – | 39402.1 | 20555.6 | – | – | 29978.8 | – | 0.908 | –
COC(=O)c1c2c(c3ccccc3c1O)OC(C)(C)C=C2 [Mollugin] | – | 0.972 | 0.582 | – | 38015.5 | 18983.8 | – | – | 28499.6 | – | 0.777 | –
Oc1cc(O)cc(-c2cc3ccc(O)cc3o2)c1 [Moracin M] | – | 0.06 | -0.745 | 15938.9 | – | – | 27063.9 | 4813.92 | – | -0.343 | – | –
CC(C)=CCc1c2c(c(O)c3c1O[C@]14C(=C[C@@H]5C[C@H]1C(C)(C)O[C@@]4(C/C=C(/C)C(=O)O)C5=O)C3=O)C=CC(C)(C)O2 [Morellic acid] | – | -0.656 | -0.586 | 12492.8 | 18474.5 | 6511.03 | – | – | – | -0.621 | – | –
O=c1c(O)c(-c2ccc(O)cc2O)oc2cc(O)cc(O)c12 [Morin] | – | -1.702 | -1.085 | – | 5911.71 | 1176.23 | – | – | 3543.97 | -1.394 | – | –
COc1cc2oc(-c3ccccc3)cc(=O)c2c(O)c1OC [Mosloflavone] | – | 0.192 | 0.208 | – | 28649.1 | 14991.8 | – | – | 21820.5 | – | – | 0.2
C=CCc1cc(OC)c(O[C@@H](C)[C@H](O)c2ccc(O)c(OC)c2)c(OC)c1 [Myrislignan] | – | 1.234 | 0.299 | – | 41167.3 | 15954.5 | – | – | 28560.9 | – | 0.766 | –
O=C(/C=C/c1ccc(O)cc1)NCCc1c[nH]c2ccc(O)cc12 [N-(p-Coumaroyl) Serotonin] | -0.185 | 0.332 | -0.702 | – | 30331 | 5267.16 | – | – | 17799.1 | – | – | –
O=C1C=CC(=O)c2c(O)ccc(O)c21 [Naphthazarin] | – | -0.196 | -0.791 | 14154.5 | 23991 | 4318.06 | – | – | – | -0.494 | – | –
O=C1N[C@@H]2C(=C[C@H](O)[C@@H](O)[C@H]2O)c2cc3c(c(O)c21)OCO3 [Narciclasine] | – | -2.127 | -0.234 | – | 817.989 | 10263 | – | – | 5540.49 | -1.181 | – | –
COc1ccc(-c2cc(=O)c3c(O)cc(O[C@@H]4O[C@H](CO)[C@@H](O)[C@H](O)[C@H]4O[C@@H]4O[C@@H](C)[C@H](O)[C@@H](O)[C@H]4O)cc3o2)cc1O [Neodiosmin] | – | 1.202 | 0.25 | – | 40782.2 | 15434.5 | – | – | 28108.4 | – | 0.726 | –
C[C@@H]1O[C@@H](O[C@H]2C(=O)c3c(O)cc(O)cc3O[C@H]2c2ccc(O)c(O)c2)[C@H](O)[C@H](O)[C@H]1O [Neoisoastilbin] | – | 0.661 | 0.303 | – | 34290.2 | 16006 | – | – | 25148.1 | – | – | 0.482
O=C(/C=C/c1ccc(O)cc1)c1ccc(O[C@@H]2O[C@H](CO)[C@@H](O)[C@H](O)[C@H]2O)cc1O [Neoisoliquiritin] | – | -0.046 | 0.369 | – | 25794.8 | 16704.1 | – | – | 21249.5 | – | – | 0.161
COc1c(O)cc2oc(-c3ccc(O)c(O)c3)cc(=O)c2c1O [Nepetin] | – | -0.728 | -0.807 | – | 17608.6 | 4146.93 | – | – | 10877.8 | -0.768 | – | –

Further lines, with some results ahead:

AvZ (average z score of seeding, SDs from the mean level of seeding) | Z repl 1 | Z Repl 2 | av puncta [1] | raw data 1 (puncta) | raw data 2 (puncta) | raw data 1 (raw puncta) | raw data 2 (raw puncta) | av puncta (average of raw data 1 and 2) | av Z (MCE Phenols Library screen) | SMILES | av Z [2] | av Z (tau seeding)
-0.61 | -0.457 | -0.762 | 12741.3 | 20857.9 | 4624.75 | – | – | – | – | COC(=O)Cc1ccc(O)cc1 [Methyl 4-hydroxyphenylacetate] | – | –
-0.502 | -0.127 | -0.877 | 14109.8 | 24825.4 | 3394.27 | – | – | – | – | COC(=O)c1ccccc1O [Methyl Salicylate] | – | –
– | -0.601 | -0.306 | 14314.5 | – | – | 19129.3 | 9499.74 | – | -0.454 | CC(C)=CCc1c(-c2ccc(O)cc2O)oc2c3c(cc(O)c2c1=O)OC(C)(C)C=C3 [Morusin] | – | –
– | -0.183 | -0.34 | 16641.5 | – | – | 24150.5 | 9132.57 | – | -0.262 | OC[C@H]1O[C@@H](Oc2cc(O)cc(/C=C/c3ccc(O[C@@H]4O[C@H](CO)[C@@H](O)[C@H](O)[C@H]4O)cc3O)c2)[C@H](O)[C@@H](O)[C@@H]1O [Mulberroside A] | – | –
0.955 | 0.959 | 0.951 | – | 37867.4 | 22918.7 | – | – | 30393 | – | NCC(c1ccc(O)cc1)C1(O)CCCCC1 (stereo not drawn) [N,N,O-Tridesmethylvenlafaxine] | – | –
-0.235 | 0.285 | -0.756 | 17233.8 | – | – | 29776.2 | 4691.42 | – | – | CC(=O)NCCc1c[nH]c2ccc(O)cc12 [N-Acetyl-5-hydroxytryptamine] | – | –
-0.474 | -0.073 | -0.875 | 14449.6 | 25475.6 | 3423.63 | – | – | – | – | CC(=O)N[C@@H](Cc1ccc(O)cc1)C(=O)O [N-Acetyl-L-tyrosine] | – | –
– | 0.249 | -0.653 | 17563.5 | – | – | 29338.6 | 5788.5 | – | -0.202 | COc1cc(-c2oc3cc(O)cc(O)c3c(=O)c2O[C@@H]2O[C@H](CO[C@@H]3O[C@@H](C)[C@H](O)[C@@H](O)[C@H]3O)[C@@H](O)[C@H](O)[C@H]2O)ccc1O [Narcissin] | – | –
– | -1.271 | -0.404 | – | 11089.3 | 8451.87 | – | – | 9770.58 | -0.838 | O=C(/C=C/c1ccc(O)cc1)c1c(O)cc(O)cc1O [Naringenin chalcone] | – | –
– | -1.009 | -0.535 | – | 14234.4 | 7055.07 | – | – | 10644.7 | -0.772 | COc1cc2oc(-c3ccccc3)cc(=O)c2c(O)c1O [Negletein] | – | –
– | 0.415 | -0.147 | – | 31334.3 | 11192.7 | – | – | 21263.5 | – | CC(C)=CCc1cc(-c2coc3cc(O)ccc3c2=O)ccc1O [Neobavaisoflavone] | – | 0.134
– | -0.752 | -0.408 | 12870.1 | 17326.7 | 8413.44 | – | – | – | -0.58 | O=C(/C=C/c1ccc(O)c(O)c1)O[C@@H]1C[C@@](O)(C(=O)O)C[C@@H](O)[C@@H]1O [Neochlorogenic acid] | – | –
– | -0.172 | -0.225 | 17327.7 | – | – | 24288.2 | 10367.2 | – | -0.198 | COc1ccc(CCC(=O)c2c(O)cc(O[C@@H]3O[C@H](CO)[C@@H](O)[C@H](O)[C@H]3O[C@@H]3O[C@@H](C)[C@H](O)[C@@H](O)[C@H]3O)cc2O)cc1O [Neohesperidin dihydrochalcone] | – | –
– | -0.356 | -0.555 | 14458.7 | 22080.4 | 6836.97 | – | – | – | -0.455 | O=C1C[C@@H](c2ccc(O)cc2)Oc2cc(O[C@@H]3O[C@H](CO)[C@@H](O)[C@H](O)[C@H]3O)ccc21 [Neoliquiritin] | – | –
